# PubChem BioAssay AID602207 (Sanford-Burnham Center for Chemical Genomics, 2012)
# The source made the active and inactive calls.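 How the source made its calls: active means IC50 below 100 µM in the TR-FRET assay, unless also active in the caspase-3 counter assay; inactive means the rest, including compounds also active in caspase-3.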
# Target: Caspase-3 (Homo sapiens) (UniProt P42574)
# Test: inhibition of recombinant caspase-3 activity – biochemical, luminescence, Caspase-Glo 3/7, set 3, counter-screen for UBC13 polyubiquitin inhibitor project, SAR follow-up (AID 602207)
# Conditions: recombinant caspase-3, Caspase-Glo luminescence, 60 min
# Sequence of Caspase-3 (Homo sapiens) (P42574 whole entry, looked up): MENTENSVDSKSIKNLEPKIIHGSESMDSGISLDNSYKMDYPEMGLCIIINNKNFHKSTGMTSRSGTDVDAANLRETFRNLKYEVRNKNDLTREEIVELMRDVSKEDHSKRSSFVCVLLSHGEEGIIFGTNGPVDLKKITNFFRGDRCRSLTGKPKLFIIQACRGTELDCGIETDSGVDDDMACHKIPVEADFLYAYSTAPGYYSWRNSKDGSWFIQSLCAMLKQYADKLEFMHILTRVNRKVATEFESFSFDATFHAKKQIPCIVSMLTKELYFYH
row,IC50,Structure (SMILES)
1,> 100 µM (inactive),CC1CN(S(=O)(=O)c2ccc(NC(=O)CCCCCN3C(=O)c4ccccc4C3=O)cc2)CC(C)O1 (centres undefined)
2,> 100 µM (inactive),O=C(Nc1cc(F)ccc1F)C1CCN(c2ncnc3c2nc2n3CCCCC2)CC1
3,> 100 µM (inactive),COc1ccc(Cl)cc1NC(=O)C1CCN(c2ncnc3c2nc2n3CCCCC2)CC1
4,> 100 µM (inactive),Cc1c(Cl)cccc1NC(=O)C1CCN(c2ncnc3c2nc2n3CCCCC2)CC1
5,> 100 µM (inactive),COc1cc(Cl)c(C)cc1NC(=O)C1CCN(c2ncnc3c2nc2n3CCCCC2)CC1
6,> 100 µM (inactive),COc1cc(OC)c(NC(=O)C2CCN(c3ncnc4c3nc3n4CCCCC3)CC2)cc1Cl
7,> 100 µM (inactive),Cc1ccc(Cl)cc1N1CCN(c2ncnc3c2nc2n3CCCC2)CC1
8,> 100 µM (inactive),O=C(CCCCCN1C(=O)c2ccccc2C1=O)NCCc1ccccc1
9,> 100 µM (inactive),O=C(Nc1cccc(Cl)c1)C1CCN(c2ncnc3c2nc2n3CCCCC2)CC1
10,> 100 µM (inactive),Cc1ccc(NC(=O)C2CCN(c3ncnc4c3nc3n4CCCCC3)CC2)cc1C
11,> 100 µM (inactive),c1ccc(CN2CCN(c3ncnc4c3nc3n4CCCC3)CC2)cc1
12,> 100 µM (inactive),COc1ccc(NC(=O)C2CCN(c3ncnc4c3nc3n4CCCCC3)CC2)cc1Cl
13,> 100 µM (inactive),CCOc1ccc(CCNC(=O)CCCCCN2C(=O)c3ccccc3C2=O)cc1OCC
14,> 100 µM (inactive),c1nc(N2CCC(N3CCCCC3)CC2)c2nc3n(c2n1)CCCC3
15,> 100 µM (inactive),Cc1cc(Cl)ccc1NC(=O)C1CCN(c2ncnc3c2nc2n3CCCCC2)CC1
16,> 100 µM (inactive),Cc1ccc(NC(=O)C2CCN(c3ncnc4c3nc3n4CCCCC3)CC2)c(Cl)c1
17,> 100 µM (inactive),Cc1ccc(NC(=O)C2CCN(c3ncnc4c3nc3n4CCCCC3)CC2)cc1F
18,> 100 µM (inactive),O=C(Nc1ccc(CN2CCCCC2)cc1)C1CCN(c2ncnc3c2nc2n3CCCCC2)CC1
19,> 100 µM (inactive),Fc1ccccc1N1CCN(c2ncnc3c2nc2n3CCCC2)CC1
